Data as given in article PMC12332554, “Novel Benzofuran-3-yl-methyl and Aliphatic Azacyclics: Design, Synthesis, and In Vitro and In Silico anti-Alzheimer Disease Activity Studies” (ACS Omega, 2025).

Legend:
human BChE = human BChE (Homo sapiens, UniProt P06276); assay: biochemical; settings: read-out: BChE % Inhibition;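 further: inhibition of BChE determined with an adapted Ellman method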
Method: (§1) According to the modified Ellman approach outlined in our earlier works − the AChE and BChE inhibitory activities of the obtained compounds were evaluated.

AChE [1] = target: T1, AChE (Homo sapiens, UniProt P22303); assay: AChE inhibition, modified Ellman approach; assay type: biochemical; settings: for inhibition at 1000 µM: 10^-3 M; for inhibition at 100 µM: 10^-4 M; for inhibition at 10 µM: 10^-5 M; for inhibition at 1 µM: 10^-6 M; for inhibition at 0.1 µM: 10^-7 M; for inhibition at 0.01 µM: 10^-8 M; for inhibition at 0.001 µM: 10^-9 M
Method: as §1

[2] = target: T2, Human β-Secretase (BACE-1) (Homo sapiens, UniProt P56817); assay: Human β-Secretase (BACE-1) Inhibitor Screening Assay kit (fluorometric); assay type: biochemical
T2 construct: purchased K720-100
Source text: The experimental procedure was based on the “Human β-Secretase (BACE-1) Inhibitor Screening Assay” kit (Human β-Secretase (BACE1) Inhibitor Screening Kit (Fluorometric)-Catalog no: K720-100) protocol based on the fluorometric method as performed previously.

AChE [3] = target: T1, AChE; assay: Kinetic studies of AChE enzyme inhibition (Lineweaver–Burk, secondary plot); assay type: biochemical; settings: Lineweaver–Burk plots
Method: Enzyme kinetics studies were conducted to determine the mechanism of inhibition of AChE using a procedure similar to that of the inhibition assay for cholinesterase enzymes. […] Linear Lineweaver–Burk graphs were used to estimate the type of inhibition of this compound. The velocity curves of the substrates were recorded in the absence and presence of compound 4m. […] In each case, the initial velocity measurements were obtained at different substrate (ATC) concentrations ranging from 600 to 18.75 μM.
For this purpose, this compound was prepared at different concentrations (IC50, 2xIC50 and IC50/2). Moreover, a substrate (ATC) was used at various concentrations (600, 300, 150, 75, 37.5, and 18.75 μM). The enzyme kinetics assay was carried out as in our previous. − Lineweaver–Burk plots were formed using Microsoft Office Excel 2013. The K i values of the compound were easily calculated from the second plot with a common intercept on the x-axis (corresponding to –K i).

T1 sequence (P22303 32-614): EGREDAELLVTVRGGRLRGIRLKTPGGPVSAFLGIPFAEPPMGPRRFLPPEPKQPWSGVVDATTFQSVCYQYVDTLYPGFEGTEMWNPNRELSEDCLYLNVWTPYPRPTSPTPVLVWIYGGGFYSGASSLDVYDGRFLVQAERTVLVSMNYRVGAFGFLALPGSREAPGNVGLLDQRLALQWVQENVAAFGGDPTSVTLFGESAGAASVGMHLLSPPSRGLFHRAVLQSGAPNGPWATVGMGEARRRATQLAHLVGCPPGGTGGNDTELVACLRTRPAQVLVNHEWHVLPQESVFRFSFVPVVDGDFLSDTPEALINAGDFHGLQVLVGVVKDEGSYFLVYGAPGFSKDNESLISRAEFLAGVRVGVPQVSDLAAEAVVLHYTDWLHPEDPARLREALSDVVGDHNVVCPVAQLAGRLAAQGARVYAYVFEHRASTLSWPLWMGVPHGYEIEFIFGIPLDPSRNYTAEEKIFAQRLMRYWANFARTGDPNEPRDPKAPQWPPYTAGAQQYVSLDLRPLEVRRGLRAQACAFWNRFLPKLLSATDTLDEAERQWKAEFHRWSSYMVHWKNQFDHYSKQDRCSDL
Chain of human BChE (P06276 29-602): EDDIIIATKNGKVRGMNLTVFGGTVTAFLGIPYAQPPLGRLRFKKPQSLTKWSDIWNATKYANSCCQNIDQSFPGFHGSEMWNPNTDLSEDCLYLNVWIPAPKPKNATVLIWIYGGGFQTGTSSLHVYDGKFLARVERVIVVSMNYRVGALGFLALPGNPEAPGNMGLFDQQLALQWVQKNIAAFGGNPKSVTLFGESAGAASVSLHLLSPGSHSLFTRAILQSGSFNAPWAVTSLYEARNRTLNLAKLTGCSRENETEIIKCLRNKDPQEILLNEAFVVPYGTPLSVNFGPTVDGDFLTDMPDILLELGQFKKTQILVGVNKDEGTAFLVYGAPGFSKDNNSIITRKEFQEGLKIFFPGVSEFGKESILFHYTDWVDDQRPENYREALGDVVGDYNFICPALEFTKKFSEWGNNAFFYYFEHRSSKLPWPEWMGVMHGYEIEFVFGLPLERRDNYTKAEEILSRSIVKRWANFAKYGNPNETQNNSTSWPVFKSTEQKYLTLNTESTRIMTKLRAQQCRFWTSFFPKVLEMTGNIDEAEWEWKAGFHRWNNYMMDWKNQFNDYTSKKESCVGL
T2 sequence (P56817 46-501): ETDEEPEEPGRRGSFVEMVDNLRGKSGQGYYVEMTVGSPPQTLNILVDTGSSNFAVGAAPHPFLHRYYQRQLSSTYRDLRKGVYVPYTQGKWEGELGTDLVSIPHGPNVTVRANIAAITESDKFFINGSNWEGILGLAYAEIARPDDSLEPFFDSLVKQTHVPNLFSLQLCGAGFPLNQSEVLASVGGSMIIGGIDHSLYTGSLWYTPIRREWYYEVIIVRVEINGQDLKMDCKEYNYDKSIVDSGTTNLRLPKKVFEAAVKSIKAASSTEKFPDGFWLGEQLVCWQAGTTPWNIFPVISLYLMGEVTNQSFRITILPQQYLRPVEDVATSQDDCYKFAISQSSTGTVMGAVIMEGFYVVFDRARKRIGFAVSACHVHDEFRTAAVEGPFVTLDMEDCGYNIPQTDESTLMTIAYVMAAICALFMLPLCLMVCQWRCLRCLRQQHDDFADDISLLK

| Compound | inhibition at 100 µM (human BChE) [%] | inhibition at 1000 µM (human BChE) [%] | inhibition at 1000 µM (AChE [1]) [%] | inhibition at 100 µM (AChE [1]) [%] | IC50 [2] [nM] | IC50 (AChE [1]) [nM] | inhibition at 10 µM (AChE [1]) [%] | inhibition at 1 µM (AChE [1]) [%] | inhibition at 0.1 µM (AChE [1]) [%] | inhibition at 0.01 µM (AChE [1]) [%] | inhibition at 0.001 µM (AChE [1]) [%] | type of AChE inhibition (AChE [3]) | β-secretase (BACE-1) IC50 [2] |
| --- | --- | --- | --- | --- | --- | --- | --- | --- | --- | --- | --- | --- | --- |
| O=C(c1ccccc1)c1oc2ccccc2c1CSC(=S)N1CCCCC1 [4a, (2-Benzoylbenzofuran-3-yl)methylpiperidine-1-dithiocarbamate] | 25.8 ± 0.92 | 31.7 ± 0.89 | 65.2 ± 1.02 | 40.7 ± 0.98 |  |  |  |  |  |  |  |  |  |
| CC1CCCCN1C(=S)SCc1c(C(=O)c2ccccc2)oc2ccccc12 (stereo not drawn) [4b, (2-Benzoylbenzofuran-3-yl)methyl 2-Methylpiperidine-1-dithiocarbamate] | 27.3 ± 0.79 | 33.9 ± 0.9 | 58.4 ± 1.9 | 43.4 ± 1.62 |  |  |  |  |  |  |  |  |  |
| CC1CCCN(C(=S)SCc2c(C(=O)c3ccccc3)oc3ccccc23)C1 (stereo not drawn) [4c, (2-Benzoylbenzofuran-3-yl)methyl 3-Methylpiperidine-1-dithiocarbamate] | 22.1 ± 0.84 | 30.4 ± 0.9 | 71.7 ± 1.1 | 43 ± 0.89 |  |  |  |  |  |  |  |  |  |
| CC1CCN(C(=S)SCc2c(C(=O)c3ccccc3)oc3ccccc23)CC1 [4d, (2-Benzoylbenzofuran-3-yl)methyl 4-Methylpiperidine-1-dithiocarbamate] | 24.4 ± 0.93 | 28.3 ± 0.81 | 63.8 ± 1.59 | 40.7 ± 0.97 |  |  |  |  |  |  |  |  |  |
| O=C(c1ccccc1)c1oc2ccccc2c1CSC(=S)N1CCC(Cc2ccccc2)CC1 [4e, (2-Benzoylbenzofuran-3-yl)methyl 4-Benzylpiperidine-1-dithiocarbamate] | 29 ± 0.73 | 35.6 ± 0.88 | 92.6 ± 1.38 | 88.6 ± 1.4 | 134 ± 6 | 49 ± 2 | 80.2 ± 1.11 | 74.3 ± 1.5 | 61.6 ± 0.92 | 45.4 ± 0.72 | 21.5 ± 0.86 |  |  |
| O=C(c1ccccc1)c1oc2ccccc2c1CSC(=S)N1CCOCC1 [4f, (2-Benzoylbenzofuran-3-yl)methyl Morpholine-4-dithiocarbamate] | 20.7 ± 0.86 | 28.4 ± 0.92 | 70.8 ± 1.12 | 41.3 ± 0.9 |  |  |  |  |  |  |  |  |  |
| CN(C)CCCN1CCN(C(=S)SCc2c(C(=O)c3ccccc3)oc3ccccc23)CC1 [4g, (2-Benzoylbenzofuran-3-yl)methyl 4-(3-(Dimethylamino)propyl)piperazine-1-dithiocarbamate] | 21.7 ± 0.93 | 29.3 ± 0.89 | 69 ± 0.97 | 39.1 ± 0.87 |  |  |  |  |  |  |  |  |  |
| O=C(c1ccccc1)c1oc2ccccc2c1CSC(=S)N1CCN(C(=O)c2ccco2)CC1 [4h, (2-Benzoylbenzofuran-3-yl)methyl 4-(Furan-2-carbonyl)piperazine-1-dithiocarbamate] | 28.3 ± 0.82 | 36.8 ± 0.76 | 90.7 ± 1.24 | 84.2 ± 1.33 | 155 ± 7 | 54 ± 2 | 80.3 ± 1.1 | 75.9 ± 1.32 | 60.3 ± 0.97 | 45.7 ± 0.87 | 23 ± 0.78 |  |  |
| O=C(c1ccccc1)c1oc2ccccc2c1CSC(=S)N1CCN(c2ncccn2)CC1 [4i, (2-Benzoylbenzofuran-3-yl)methyl 4-(Pyrimidine-2-yl)piperazine-1-dithiocarbamate] | 20.8 ± 0.88 | 28.6 ± 0.82 | 72.8 ± 1 | 43.6 ± 0.87 |  |  |  |  |  |  |  |  |  |
| O=C(c1ccccc1)c1oc2ccccc2c1CSC(=S)N1CCN(c2ccccc2)CC1 [4j, (2-Benzoylbenzofuran-3-yl)methyl 4-Phenylpiperazine-1-dithiocarbamate] | 24.9 ± 0.92 | 31.6 ± 0.73 | 75.6 ± 1.05 | 41 ± 0.79 |  |  |  |  |  |  |  |  |  |
| O=C(c1ccccc1)c1oc2ccccc2c1CSC(=S)N1CCN(c2ccc([N+](=O)[O-])cc2)CC1 [4k, (2-Benzoylbenzofuran-3-yl)methyl 4-(4-Nitrophenyl)piperazine-1-dithiocarbamate] | 23.6 ± 0.83 | 30.4 ± 0.93 | 69 ± 1 | 41.6 ± 0.95 |  |  |  |  |  |  |  |  |  |
| COc1ccc(N2CCN(C(=S)SCc3c(C(=O)c4ccccc4)oc4ccccc34)CC2)cc1 [4l, (2-Benzoylbenzofuran-3-yl)methyl 4-(4-Methoxyphenyl)piperazine-1-dithiocarbamate] | 21.4 ± 0.87 | 30.5 ± 0.87 | 72.3 ± 1.1 | 43.9 ± 0.98 |  |  |  |  |  |  |  |  |  |
| O=C(c1ccccc1)c1oc2ccccc2c1CSC(=S)N1CCN(CCO)CC1 [4m, (2-Benzoylbenzofuran-3-yl)methyl 4-(2-Hydroxyethyl)piperazine-1-dithiocarbamate] | 31.1 ± 0.73 | 39.1 ± 0.76 | 94.3 ± 1.64 | 89.4 ± 1.5 | 84 ± 3 | 29 ± 1 | 80.2 ± 1.48 | 75.4 ± 1.1 | 70.4 ± 1.21 | 44.7 ± 0.97 | 26.6 ± 0.72 | reversible and mixed-type inhibitor |  |
| O=C(c1ccccc1)c1oc2ccccc2c1CSC(=S)N1CCN(c2ccc(Cl)cc2)CC1 [4n, (2-Benzoylbenzofuran-3-yl)methyl 4-(4-Chlorophenyl)piperazine-1-dithiocarbamate] | 20.1 ± 0.78 | 29.6 ± 0.86 | 76.7 ± 1.26 | 46.8 ± 0.86 |  |  |  |  |  |  |  |  |  |
| O=C(c1ccccc1)c1oc2ccccc2c1CSC(=S)N1CCN(c2ccc(F)cc2)CC1 [4o, (2-Benzoylbenzofuran-3-yl)methyl 4-(4-Fluorophenyl)piperazine-1-dithiocarbamate] | 30.3 ± 0.82 | 37.5 ± 0.75 | 91.2 ± 1.57 | 83.6 ± 1.47 | > 10000 | 41 ± 2 | 75 ± 1.67 | 65.8 ± 1.1 | 58.3 ± 1 | 48 ± 0.95 | 20.8 ± 0.74 |  | no significant inhibition |
